Assay results published in patent US20040057926A1, “Modulation of the immune response through the manipulation of arginine levels” (LSU Medical Center, priority 2002, published 2004).

What was measured:
[1] = system: purified T-cells; test: CD3ζ and phospho-CD3ζ expression in stimulated purified T-cells (flow cytometry); assay type: cell-based, human
Procedure: Peripheral blood mononuclear cells (PBMC) from normal donors were separated over Ficoll-Paque (Pharmacia Biotech, Uppsala, Sweden). PBMC were enriched over T-cell enrichment columns (R&D Systems, Minneapolis, Minn.). After 10 min. of incubation, the columns were washed and the obtained enriched T-cells were counted and tested for surface markers by flow cytometry. […].
Tissue culture dishes (100 mm) (Corning, N.Y.) were coated overnight at 4° C. with PBS containing 10 μg/ml of anti-CD3 (OKT-3 Ortho Pharmaceutical, Raritan, N.J.) and washed once with cold phosphate buffer saline (PBS). Two million purified T-cells were resuspended in complete RPMI-1640 (RPMI) containing approximately 1140 μM of L-arginine (BioWhittaker, Walkersville, Md.) or in RPMI-1640 without L-arginine (Arg-free-RPMI) (GIBCO, Invitrogen, Grand Island, N.Y.) containing 100 ng/ml of anti-CD28 (Becton Dickinson, San Jose, Calif.) and added to plates. Control media included RPMI without L-glutamine or […]. Unstimulated T-cells were placed in the same culture conditions as controls. […]
To determine CD3ζ expression, purified T-cells were incubated for 15 min at 4° C. with anti-CD3-FITC or the isotype control (Beckman-Coulter, Miami, Fla.) at 1 μg of antibody/10^6 cells. […] Fluorescence analysis was done using a Coulter-EPICS flow cytometer (Beckman-Coulter, Miami, Fla.).

[2] = system: purified T-cells; test: CD3ζ expression in stimulated purified T-cell cultures with H. pylori sonicate; assay type: cell-based, human; conditions: sonicate 20 μg/ml, L-arginine 400 μM
Procedure: After isolating peripheral blood mononuclear cells by Ficoll-Paque Plus (Amersham Pharmacia Biotech; Piscataway, N.J.), T-cells were purified by negative selection by using an affinity column (R & D Systems; Minneapolis, Minn.). The purity was always >90% T-cells as measured by the expression of CD3ε. H. pylori extracts or live H. pylori have no effect on resting T-cells, therefore T-cells were stimulated by cross linking anti-CD3 plus anti-CD28 as follows: 24 well plates were coated with 0.3 ml of goat-anti mouse (GAM) (Kirkegaard & Perry Laboratories; Gaithersburg, Md.) at 10 μg/ml in HBSS for 1 h. After washing twice with Hank's balanced salt solution (HBSS), 0.5×10^6 of purified T-cells were added per well in 1 ml of RPMI without L-arginine containing 1 μg/ml of anti-human CD3 (Ortho Diagnostics, Raritan, N.J.) and 100 ng/ml of anti-human CD28 (Becton-Dickinson) and cultured for 24 h. After this time L-arginine was added to the wells to give a final concentration of 0.4 mM. H. pylori sonicate (20 μg/ml) from either the wild type strain ATCC 43504 or its rocF (−) isogenic mutant was also added to the wells. After 24 h under these conditions, the cells were recovered and stained for CD3ζ. Six different donors were tested. […]

[3] = molecular target: CAT-1 (Homo sapiens, UniProt P30825); conditions: read-out: Km for L-Arg; cited from earlier work
Chain of CAT-1 (P30825 whole entry): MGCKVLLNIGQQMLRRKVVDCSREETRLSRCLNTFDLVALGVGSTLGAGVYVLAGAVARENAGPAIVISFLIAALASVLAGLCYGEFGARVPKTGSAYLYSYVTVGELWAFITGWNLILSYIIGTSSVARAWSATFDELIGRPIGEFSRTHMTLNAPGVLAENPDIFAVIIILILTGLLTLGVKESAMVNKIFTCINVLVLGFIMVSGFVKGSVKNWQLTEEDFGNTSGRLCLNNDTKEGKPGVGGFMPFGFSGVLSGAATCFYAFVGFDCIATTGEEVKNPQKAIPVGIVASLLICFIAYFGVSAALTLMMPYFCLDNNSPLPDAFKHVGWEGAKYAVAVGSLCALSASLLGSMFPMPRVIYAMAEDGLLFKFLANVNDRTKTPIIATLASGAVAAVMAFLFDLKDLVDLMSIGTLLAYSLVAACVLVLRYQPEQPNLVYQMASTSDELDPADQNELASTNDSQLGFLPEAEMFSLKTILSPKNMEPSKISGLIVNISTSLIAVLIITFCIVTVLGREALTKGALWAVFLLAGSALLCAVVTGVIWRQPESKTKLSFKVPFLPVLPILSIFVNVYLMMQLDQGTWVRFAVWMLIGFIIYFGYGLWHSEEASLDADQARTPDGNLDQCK

[4] = system: H. pylori arginase; conditions: McGee, manuscript in preparation; cited from earlier work

Structure (SMILES) | re-expression of CD3ζ after addition of L-arginine to the culture media ([1]; L-arginine 1140 μM, T-cells stimulated in Arg-free-RPMI) | L-Arg concentrations that impair the re-expression of CD3ζ chain ([1]; stimulated T-cells, in vitro) | CD3ζ expression in stimulated T-cells [2] | Km [3] [µM] | inhibition of H. pylori arginase [4]
N=C(N)NCCC[C@H](N)C(=O)O [L-arginine] | rapid re-expression of CD3ζ | below 40 μM | recovered CD3ζ expression | 100 | –
NC(=NCCC[C@H](N)C(=O)O)NO [NOHA, NG-hydroxy-L-arginine] | – | – | – | – | only partially inhibit H. pylori arginase
